Laboratory results published in ChEMBL document CHEMBL1201862, “PubChem BioAssay data set” (2004).
The source made the active and inactive calls.

Legend:
[1] = molecular target: T1, DNA repair and recombination protein RAD54-like (Homo sapiens, UniProt Q92698); assay: inhibitors of human RAD54 branch migration, confirmation, biochemical, fluorescence, cherry-picked samples, dose series (AID 651657); type: functional
T1 sequence (Q92698 whole entry): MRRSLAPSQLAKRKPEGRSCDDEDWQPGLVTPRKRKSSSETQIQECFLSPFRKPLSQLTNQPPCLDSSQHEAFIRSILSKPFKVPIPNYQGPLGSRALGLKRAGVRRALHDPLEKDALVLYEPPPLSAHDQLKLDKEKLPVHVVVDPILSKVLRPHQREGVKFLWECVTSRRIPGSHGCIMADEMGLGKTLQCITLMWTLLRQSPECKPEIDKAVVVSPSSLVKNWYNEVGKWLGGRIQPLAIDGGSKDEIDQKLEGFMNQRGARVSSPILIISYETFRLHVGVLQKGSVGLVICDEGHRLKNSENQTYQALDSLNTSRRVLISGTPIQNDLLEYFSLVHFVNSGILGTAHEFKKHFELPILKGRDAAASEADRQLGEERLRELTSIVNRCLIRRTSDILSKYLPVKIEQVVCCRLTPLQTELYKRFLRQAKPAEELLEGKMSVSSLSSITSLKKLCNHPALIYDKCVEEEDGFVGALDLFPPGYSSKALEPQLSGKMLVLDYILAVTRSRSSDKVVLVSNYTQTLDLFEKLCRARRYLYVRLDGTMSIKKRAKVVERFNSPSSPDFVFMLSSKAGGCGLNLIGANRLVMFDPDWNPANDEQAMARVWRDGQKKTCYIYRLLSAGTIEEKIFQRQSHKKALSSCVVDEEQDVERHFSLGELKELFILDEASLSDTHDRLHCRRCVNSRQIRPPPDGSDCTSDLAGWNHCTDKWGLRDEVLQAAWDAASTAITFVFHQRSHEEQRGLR

[2] = miR-122 activators in hepatoma reporter cells, dose response, cell-based, Huh7 psiCHECK-miR122, Renilla luciferase, cherry-picked (AID 651956); type: functional;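 also: huh7 hepatoma cells stably carrying a psiCHECK-2 miR-122 sensor plasmid; renilla luciferase signal reporting endogenous miR-122 activity after 48 h compound exposure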
Melanocortin receptor 4 [3] = molecular target: T2, Melanocortin receptor 4 (Homo sapiens, UniProt P32245); type: functional, cell-based;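 also: Cell-based assay with luminescence read-out, confirmatory dose-response testing for agonist activity of biased ligands at MC4R; human U2OS cells with tagged receptor and beta-arrestin; potency of agonists that increase receptor coupling to beta-arrestin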
Paired box protein Pax-8 = Paired box protein Pax-8 (Homo sapiens, UniProt Q06710); assay: inhibitors of PAX8-driven TPO luciferase reporter, dose response, RMG-I cells, cherry-pick (AID 687027); type: functional, cell-based;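 also: luciferase reporter driven by Pax8 target thyroperoxidase promoter measured by SteadyGlo luminescence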
[4] = molecular target: T3, Type-1 angiotensin II receptor (Homo sapiens, UniProt P30556); assay: AT1 receptor antagonists, dose response, selectivity assay for APJ receptor antagonist project, cell-based, uHTS hits (AID 463214); type: functional;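 also: antagonist potency against angiotensin II stimulated AT1 response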
T3 sequence (P30556 whole entry): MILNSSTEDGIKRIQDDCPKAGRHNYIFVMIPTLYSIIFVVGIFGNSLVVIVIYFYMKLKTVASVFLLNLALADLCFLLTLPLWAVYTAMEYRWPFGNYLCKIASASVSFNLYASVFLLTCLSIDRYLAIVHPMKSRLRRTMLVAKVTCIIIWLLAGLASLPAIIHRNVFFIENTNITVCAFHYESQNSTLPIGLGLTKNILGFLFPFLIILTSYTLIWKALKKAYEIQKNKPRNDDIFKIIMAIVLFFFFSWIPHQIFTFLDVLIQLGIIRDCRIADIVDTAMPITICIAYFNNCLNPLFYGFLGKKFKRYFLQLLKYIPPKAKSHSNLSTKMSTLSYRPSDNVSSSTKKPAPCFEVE

[5] = molecular target: Beta-2 adrenergic receptor (Homo sapiens, UniProt P07550); assay: beta2AR agonists driving receptor internalization, dose response, cell-based, FAP fluorogen, flow cytometry, cherry pick 1 (AID 588763); type: functional
[6] = Luminescence Cell-Based Dose Retest to Confirm Inhibitors of Cancer Stem Cells. [Related pubchem assays (depositor defined):AID2717, AID2721]; type: functional; conditions: Homo sapiens
[7] = nonselective inhibitors of cellular cAMP signaling, dose response, counter-screen for MC4R biased antagonist project, cell-based, TR-FRET cAMP detection (AID 602305); type: functional;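 also: U2OS cells stimulated with forskolin near its EC80 as the cAMP inducer; potency is for inhibition of forskolin-stimulated cAMP signaling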
[8] = growth suppression of PTEN-null colon cells, dose response, cell-based, HCT116 PTEN knockout (AID 1047); type: functional;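 also: HCT116 colon tumor cells with PTEN knocked out; cells exposed to compound for 60 hours before readout; potency for loss of cell viability measured by luminescence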
[9] = growth suppression of beta-catenin-knockout colon cells, dose response, cell-based, HCT116, human colon tumor (AID 1045); type: functional;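 also: HCT116 colon tumor cells with beta catenin knocked out; cells exposed to compound for 60 hours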
Melanocortin receptor 4 [10] = molecular target: T2, Melanocortin receptor 4; assay: MC4R antagonist potency on cAMP, dose response, cell-based, TR-FRET, biased antagonists (AID 602298); type: functional;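 also: antagonist potency against agonist-stimulated cAMP production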
Beta-galactosidase = Beta-galactosidase (Escherichia coli, UniProt Q8VNN2); assay: PubChem AID 485352; type: functional
[11] = molecular target: Ras and Rab interactor 1/Tyrosine-protein kinase ABL1 (Homo sapiens, UniProt P00519+Q13671); type: functional;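 also: biochemical TR-FRET dose-response test measuring inhibition of binding between Rin1 and Abl proteins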
Prothrombin = Prothrombin (Bos taurus, UniProt P00735); assay: thrombin inhibition, dose response, biochemical, fluorescence polarization, uHTS hits (AID 602369); type: functional
[12] = molecular target: 72 kDa type IV collagenase (Homo sapiens, UniProt P08253); assay: Dose Response validation of uHTS RPN11 inhibitor hits using a MMP-2 Fluorescence assay.; type: functional
[13] = molecular target: 26S proteasome non-ATPase regulatory subunit 14 (Homo sapiens, UniProt O00487); assay: inhibition of proteasome subunit RPN11 – biochemical, fluorescence polarization, uHTS hits, confirmation (AID 602368); type: functional
[14] = molecular target: T4, Probable nicotinate-nucleotide adenylyltransferase (Staphylococcus aureus (strain N315), UniProt P65502); type: functional, Staphylococcus aureus subsp. aureus N315;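 as to IC50 Mean: confirmatory dose-response retesting of NadD inhibitor hits first found in an ultra-high-throughput screen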
[15] = molecular target: T4, Probable nicotinate-nucleotide adenylyltransferase; type: functional, Staphylococcus aureus subsp. aureus N315; conditions: read-out: IC50_Mean
[16] = molecular target: T5, Short transient receptor potential channel 4 (Mus musculus, UniProt Q9QUQ5); assay: mouse TRPC4 channel activators, dose response, cell-based, HEK293 TRPC4/mu-opioid, Fluo-4 calcium (AID 434937); type: functional
T5 sequence (Q9QUQ5 whole entry): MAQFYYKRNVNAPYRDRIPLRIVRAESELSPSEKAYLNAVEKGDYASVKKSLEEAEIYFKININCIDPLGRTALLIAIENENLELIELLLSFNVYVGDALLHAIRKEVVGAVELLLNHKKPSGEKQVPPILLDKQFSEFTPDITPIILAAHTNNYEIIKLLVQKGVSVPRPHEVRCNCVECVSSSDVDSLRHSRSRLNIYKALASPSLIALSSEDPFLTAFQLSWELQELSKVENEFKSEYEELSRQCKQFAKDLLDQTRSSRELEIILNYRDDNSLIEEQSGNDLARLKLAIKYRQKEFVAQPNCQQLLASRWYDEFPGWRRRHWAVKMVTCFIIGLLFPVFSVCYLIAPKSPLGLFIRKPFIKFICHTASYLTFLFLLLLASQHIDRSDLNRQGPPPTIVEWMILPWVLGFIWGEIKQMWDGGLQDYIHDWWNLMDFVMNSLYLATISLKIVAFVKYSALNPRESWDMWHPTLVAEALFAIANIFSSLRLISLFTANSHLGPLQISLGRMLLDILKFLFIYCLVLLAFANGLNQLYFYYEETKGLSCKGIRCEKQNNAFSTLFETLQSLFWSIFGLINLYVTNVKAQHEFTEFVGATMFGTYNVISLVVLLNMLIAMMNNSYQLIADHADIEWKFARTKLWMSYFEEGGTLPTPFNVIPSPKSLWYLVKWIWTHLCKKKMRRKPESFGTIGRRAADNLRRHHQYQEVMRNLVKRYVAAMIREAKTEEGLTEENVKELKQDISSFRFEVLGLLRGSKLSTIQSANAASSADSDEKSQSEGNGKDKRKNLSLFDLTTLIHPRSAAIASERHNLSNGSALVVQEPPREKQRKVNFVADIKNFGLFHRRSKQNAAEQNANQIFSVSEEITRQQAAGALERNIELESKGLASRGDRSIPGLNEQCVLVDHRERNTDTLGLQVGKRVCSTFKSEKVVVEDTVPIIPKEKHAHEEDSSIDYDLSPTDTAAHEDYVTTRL

[17] = molecular target: T6, High affinity choline transporter 1 (Homo sapiens, UniProt Q9GZV3); assay: CHT inhibitors, dose response, cell-based, 5-point CRC, membrane potential dye (AID 504840); type: functional
T6 sequence (Q9GZV3 whole entry): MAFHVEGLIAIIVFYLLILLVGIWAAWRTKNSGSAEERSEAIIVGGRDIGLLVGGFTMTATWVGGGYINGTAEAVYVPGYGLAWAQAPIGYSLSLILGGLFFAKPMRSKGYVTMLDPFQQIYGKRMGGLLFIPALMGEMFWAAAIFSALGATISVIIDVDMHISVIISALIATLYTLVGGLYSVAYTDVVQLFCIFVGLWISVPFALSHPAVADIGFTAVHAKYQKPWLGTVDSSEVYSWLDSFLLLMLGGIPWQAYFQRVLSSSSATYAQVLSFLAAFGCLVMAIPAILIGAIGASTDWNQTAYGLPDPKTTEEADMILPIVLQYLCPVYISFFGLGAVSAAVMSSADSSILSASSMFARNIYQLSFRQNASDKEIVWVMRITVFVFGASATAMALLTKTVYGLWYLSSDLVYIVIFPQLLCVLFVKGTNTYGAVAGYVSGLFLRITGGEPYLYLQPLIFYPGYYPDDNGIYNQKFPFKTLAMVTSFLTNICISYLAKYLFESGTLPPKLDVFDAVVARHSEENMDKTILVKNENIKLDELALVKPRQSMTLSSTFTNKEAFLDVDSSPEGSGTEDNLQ

Nonstructural protein 1 = Nonstructural protein 1 (Influenza A virus, UniProt Q194T2); type: functional, Influenza A virus (A/California/07/2009(H1N1))
Chain of Nonstructural protein 1 (Q194T2 whole entry): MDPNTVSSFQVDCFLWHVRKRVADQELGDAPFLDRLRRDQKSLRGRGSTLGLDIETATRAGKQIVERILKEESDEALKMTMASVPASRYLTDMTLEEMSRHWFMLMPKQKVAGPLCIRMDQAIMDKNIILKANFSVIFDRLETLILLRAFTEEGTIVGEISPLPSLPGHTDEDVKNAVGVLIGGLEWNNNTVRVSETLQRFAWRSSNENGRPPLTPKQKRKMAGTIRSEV

T2 sequence (P32245 whole entry): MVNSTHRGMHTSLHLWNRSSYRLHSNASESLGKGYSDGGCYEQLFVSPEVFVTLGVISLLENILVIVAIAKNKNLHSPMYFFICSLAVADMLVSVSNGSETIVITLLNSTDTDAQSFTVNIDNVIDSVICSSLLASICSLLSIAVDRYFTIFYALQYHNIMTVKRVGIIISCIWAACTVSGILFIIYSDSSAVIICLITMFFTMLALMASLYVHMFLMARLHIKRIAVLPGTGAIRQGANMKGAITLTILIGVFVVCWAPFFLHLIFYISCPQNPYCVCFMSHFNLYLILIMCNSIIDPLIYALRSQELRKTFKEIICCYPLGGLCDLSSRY
Chain of 26S proteasome non-ATPase regulatory subunit 14 (O00487 whole entry): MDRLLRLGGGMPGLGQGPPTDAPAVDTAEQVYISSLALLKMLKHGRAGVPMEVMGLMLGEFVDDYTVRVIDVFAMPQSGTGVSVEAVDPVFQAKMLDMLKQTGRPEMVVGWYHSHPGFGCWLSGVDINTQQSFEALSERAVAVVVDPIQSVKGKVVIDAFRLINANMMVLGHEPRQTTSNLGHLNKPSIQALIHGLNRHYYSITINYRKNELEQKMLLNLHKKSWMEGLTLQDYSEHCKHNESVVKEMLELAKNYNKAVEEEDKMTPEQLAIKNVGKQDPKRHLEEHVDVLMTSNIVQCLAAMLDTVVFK
T4 sequence (P65502 whole entry): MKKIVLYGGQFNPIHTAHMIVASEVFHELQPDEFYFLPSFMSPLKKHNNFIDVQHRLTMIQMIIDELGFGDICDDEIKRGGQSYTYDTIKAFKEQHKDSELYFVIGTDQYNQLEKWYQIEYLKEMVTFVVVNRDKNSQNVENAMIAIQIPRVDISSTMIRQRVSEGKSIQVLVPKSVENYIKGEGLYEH
Chain of 72 kDa type IV collagenase (P08253 whole entry): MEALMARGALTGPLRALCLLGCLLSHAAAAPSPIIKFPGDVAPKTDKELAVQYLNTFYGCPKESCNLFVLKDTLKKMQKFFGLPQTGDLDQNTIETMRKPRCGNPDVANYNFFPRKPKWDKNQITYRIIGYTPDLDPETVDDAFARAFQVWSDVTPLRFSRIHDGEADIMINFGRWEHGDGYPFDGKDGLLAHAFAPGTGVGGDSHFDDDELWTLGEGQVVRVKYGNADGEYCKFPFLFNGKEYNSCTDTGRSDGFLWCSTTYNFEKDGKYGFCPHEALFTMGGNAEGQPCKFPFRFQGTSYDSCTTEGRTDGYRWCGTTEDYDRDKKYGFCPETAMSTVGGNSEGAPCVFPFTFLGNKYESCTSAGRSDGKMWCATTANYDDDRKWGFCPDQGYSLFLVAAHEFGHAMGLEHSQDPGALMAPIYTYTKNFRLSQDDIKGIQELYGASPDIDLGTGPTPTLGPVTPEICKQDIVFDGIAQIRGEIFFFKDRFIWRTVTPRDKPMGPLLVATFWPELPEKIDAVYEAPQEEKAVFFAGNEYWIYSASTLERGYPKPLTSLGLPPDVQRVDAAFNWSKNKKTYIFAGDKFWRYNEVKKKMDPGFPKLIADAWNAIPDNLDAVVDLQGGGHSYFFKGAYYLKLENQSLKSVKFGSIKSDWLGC
Chain of Ras and Rab interactor 1/Tyrosine-protein kinase ABL1 (P00519 whole entry): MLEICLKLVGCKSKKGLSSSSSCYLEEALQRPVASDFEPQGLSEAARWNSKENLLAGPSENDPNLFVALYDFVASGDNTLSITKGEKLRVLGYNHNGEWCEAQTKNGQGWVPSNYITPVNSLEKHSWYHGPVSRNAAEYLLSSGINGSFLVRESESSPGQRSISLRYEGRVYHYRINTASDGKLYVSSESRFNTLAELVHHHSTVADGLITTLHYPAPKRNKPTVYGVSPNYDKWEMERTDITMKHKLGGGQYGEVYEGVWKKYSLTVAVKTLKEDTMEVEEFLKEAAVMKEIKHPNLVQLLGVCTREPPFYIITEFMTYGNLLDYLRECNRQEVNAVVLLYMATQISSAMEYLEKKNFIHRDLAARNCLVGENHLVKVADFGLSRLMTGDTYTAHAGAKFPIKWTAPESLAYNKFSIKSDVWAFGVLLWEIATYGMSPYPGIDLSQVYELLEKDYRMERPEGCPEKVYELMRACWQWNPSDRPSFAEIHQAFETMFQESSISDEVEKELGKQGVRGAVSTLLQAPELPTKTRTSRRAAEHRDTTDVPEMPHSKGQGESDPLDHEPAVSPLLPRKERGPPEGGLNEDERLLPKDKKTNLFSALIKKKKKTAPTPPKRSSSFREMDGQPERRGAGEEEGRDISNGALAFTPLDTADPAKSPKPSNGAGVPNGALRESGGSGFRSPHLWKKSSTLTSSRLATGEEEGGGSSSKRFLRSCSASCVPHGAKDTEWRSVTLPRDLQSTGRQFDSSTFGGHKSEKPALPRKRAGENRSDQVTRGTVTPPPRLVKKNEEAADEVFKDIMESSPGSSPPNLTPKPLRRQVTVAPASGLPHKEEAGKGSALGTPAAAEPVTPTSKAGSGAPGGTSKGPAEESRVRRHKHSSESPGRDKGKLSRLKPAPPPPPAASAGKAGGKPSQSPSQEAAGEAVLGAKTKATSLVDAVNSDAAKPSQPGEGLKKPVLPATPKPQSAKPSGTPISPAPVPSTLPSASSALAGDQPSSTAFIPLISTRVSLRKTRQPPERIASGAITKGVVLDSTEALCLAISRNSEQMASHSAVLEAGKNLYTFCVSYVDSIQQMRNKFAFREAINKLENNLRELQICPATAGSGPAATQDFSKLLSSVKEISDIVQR
Chain of Ras and Rab interactor 1/Tyrosine-protein kinase ABL1 (Q13671 whole entry): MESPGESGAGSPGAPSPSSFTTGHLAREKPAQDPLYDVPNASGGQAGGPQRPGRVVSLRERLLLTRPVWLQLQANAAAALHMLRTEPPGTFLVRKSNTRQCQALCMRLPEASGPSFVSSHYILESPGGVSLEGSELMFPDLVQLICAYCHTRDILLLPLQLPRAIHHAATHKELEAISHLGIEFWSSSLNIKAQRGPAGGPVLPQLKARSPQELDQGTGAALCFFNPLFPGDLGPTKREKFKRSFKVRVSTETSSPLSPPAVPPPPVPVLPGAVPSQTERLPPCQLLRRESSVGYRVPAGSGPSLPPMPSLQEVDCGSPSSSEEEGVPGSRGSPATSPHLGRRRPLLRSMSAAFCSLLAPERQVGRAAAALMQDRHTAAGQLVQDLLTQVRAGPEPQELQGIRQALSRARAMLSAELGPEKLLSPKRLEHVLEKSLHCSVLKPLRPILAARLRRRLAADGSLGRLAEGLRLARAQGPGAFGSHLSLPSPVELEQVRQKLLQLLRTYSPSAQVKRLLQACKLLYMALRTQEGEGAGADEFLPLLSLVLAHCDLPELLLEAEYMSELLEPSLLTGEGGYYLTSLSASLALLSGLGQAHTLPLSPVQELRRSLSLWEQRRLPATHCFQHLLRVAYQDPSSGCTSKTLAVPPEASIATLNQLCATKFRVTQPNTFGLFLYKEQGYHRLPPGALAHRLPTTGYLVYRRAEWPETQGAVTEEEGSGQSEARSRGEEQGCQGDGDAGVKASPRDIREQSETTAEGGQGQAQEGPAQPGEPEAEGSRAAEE
Chain of Beta-galactosidase (Q8VNN2 whole entry): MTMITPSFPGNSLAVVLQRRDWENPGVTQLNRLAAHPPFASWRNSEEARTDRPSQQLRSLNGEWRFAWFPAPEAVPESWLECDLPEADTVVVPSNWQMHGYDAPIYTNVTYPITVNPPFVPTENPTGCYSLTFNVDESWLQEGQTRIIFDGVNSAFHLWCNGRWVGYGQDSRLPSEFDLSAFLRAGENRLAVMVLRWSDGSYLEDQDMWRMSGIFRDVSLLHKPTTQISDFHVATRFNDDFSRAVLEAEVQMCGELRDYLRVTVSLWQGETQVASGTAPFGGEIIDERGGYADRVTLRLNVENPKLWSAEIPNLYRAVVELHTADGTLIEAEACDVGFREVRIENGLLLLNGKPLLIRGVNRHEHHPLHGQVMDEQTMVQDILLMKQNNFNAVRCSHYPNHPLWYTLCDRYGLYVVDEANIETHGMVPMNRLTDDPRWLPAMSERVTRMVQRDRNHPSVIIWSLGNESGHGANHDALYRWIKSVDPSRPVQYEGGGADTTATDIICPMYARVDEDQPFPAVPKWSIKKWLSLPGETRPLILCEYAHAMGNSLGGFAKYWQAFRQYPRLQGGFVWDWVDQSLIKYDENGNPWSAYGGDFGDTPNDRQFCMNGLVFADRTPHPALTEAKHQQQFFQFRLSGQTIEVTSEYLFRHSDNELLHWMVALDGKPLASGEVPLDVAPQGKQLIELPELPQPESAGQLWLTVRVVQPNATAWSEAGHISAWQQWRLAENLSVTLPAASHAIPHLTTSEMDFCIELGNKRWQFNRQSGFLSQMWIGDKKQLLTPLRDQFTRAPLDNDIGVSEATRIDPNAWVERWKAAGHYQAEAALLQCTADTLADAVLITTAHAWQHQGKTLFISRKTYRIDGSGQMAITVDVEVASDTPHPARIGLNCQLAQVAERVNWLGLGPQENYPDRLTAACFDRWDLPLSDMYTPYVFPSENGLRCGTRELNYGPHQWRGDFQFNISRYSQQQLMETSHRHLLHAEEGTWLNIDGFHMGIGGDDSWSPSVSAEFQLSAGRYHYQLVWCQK

For `COc1cccc(-c2nc(NCCN3CCOCC3)c3ccccc3n2)c1O`, which AC50 [1] is on record?
The AC50 was 8.35 µM (active).

What about the AC50 [2] of the same molecule?
The AC50 was 51.4 µM (active).

For `CCN1CCN(Cc2ccc(NC(=O)c3cc(NC(=O)C(=O)c4c[nH]c5ccccc45)cc(OC)c3)cc2C(F)(F)F)CC1`, which EC50 (Melanocortin receptor 4 [3]) is on record?
Its EC50 is > 89.2 µM (inactive).

And the AC50 (Paired box protein Pax-8)?
Its AC50 is 8.98 µM (active).

With `COc1ccc(C(NC(=O)C2CCN(CCOc3ccc(Cl)cc3Cl)CC2)c2ccccc2C)cn1` (configuration not stated) as the molecule, how does the EC50 (Melanocortin receptor 4 [3]) read?
Its EC50 is > 89.2 µM (inactive).

Which results are given for `CC(C)Cc1nc2oc3c(Cl)ncnc3c2c2c1CCC2`?
IC50 [4]: > 40 µM (not active); EC50 [5]: 11.8 µM (inactive); AC50 [6]: 4.61 µM (active); IC50 [7]: > 64.6 µM (inactive); EC50 [8]: 18 µM (active); EC50 [9]: 8.07 µM (active); IC50 (Melanocortin receptor 4 [10]): > 64.6 µM (inactive); EC50 (Beta-galactosidase): > 40 µM (inactive)

For `COc1ccc(/C=N/NC(=O)Cn2c(Cc3ccc(OC)c(OC)c3)nc3ccccc32)cc1`, which IC50 [11] is on record?
The IC50 was > 73.4 µM (inactive).

For `COc1cccc(-c2ccc3c(c2)O[C@H](CN(C)C(=O)C2CCOCC2)[C@H](C)CN([C@H](C)CO)S3(=O)=O)c1`, which AC50 [2] is on record?
Its AC50 is 15.8 µM (active).

What does the source list for `Cc1nc(SCc2nc3cc(Cl)c(F)cc3[nH]2)c2oc3ccccc3c2n1`?
IC50 (Prothrombin): 42.5 µM (active); IC50 [12]: > 100 µM (inactive); IC50 [13]: 38.1 µM (active)

With `CCOC(=O)c1c(C)[nH]c(C(=O)OCC(=O)N(CC(C)C)c2c(N)n(Cc3ccccc3)c(=O)[nH]c2=O)c1C` as the molecule, how does the IC50 (Prothrombin) read?
The IC50 was 33.7 µM (active).

What about the IC50 [12] of the same molecule?
Its IC50 is > 100 µM (inactive).

What about the IC50 [13] of the same molecule?
The IC50 was 31.8 µM (active).

Which results are given for `C#CCN(C[C@H]1[C@H](OC(=O)NCc2ccccc2)[C@H](OC(=O)NCc2ccccc2)C[C@H]2C(=O)N(c3ccccc3)C(=O)[C@@H]12)S(=O)(=O)c1ccc(C)cc1`?
IC50 [14]: 16.5 µM (active); IC50 [15]: 42.3 µM (active)

Which IC50 [11] does the source give for `O=C(Cc1ccc(NC(=O)C2CCN(C(=O)C3CCCCC3)CC2)cc1)Nc1ccc(C(=O)N2CCOCC2)cc1` here?
The IC50 was 5.51 µM (active).

What does the source list for `Cc1cccc(N2CCN(C(=O)c3ccc4c(c3)NC(=O)C(CSCc3cccc(F)c3)N4)CC2C)c1` (configuration not stated)?
IC50 [14]: 3.09 µM (active); IC50 [15]: 13.8 µM (active)

Which EC50 (Melanocortin receptor 4 [3]) does the source give for `CCN1CCC(O)(/C=C/c2ccc(C(C)C)cc2)C(C(=O)/C=C/c2ccc(C(C)C)cc2)C1` (configuration not stated) here?
Its EC50 is > 89.2 µM (inactive).

Which IC50 [7] does the source give for `CC(C)C1CC(CCNCc2ccc3c(c2)OCO3)(c2ccccc2)CCO1` (configuration not stated) here?
Its IC50 is > 64.6 µM (inactive).

What about the EC50 [16] of the same molecule?
Its EC50 is 5.96 µM (active).

And the IC50 (Melanocortin receptor 4 [10])?
Its IC50 is > 64.6 µM (inactive).

For `O=C1NC[C@@H](CCCCN2C[C@H](Cc3ccc(O)cc3)N(CCC3CCCCC3)C(=O)C2=O)N(CC2CCCCC2)C1=O`, which IC50 [14] is on record?
Its IC50 is 8.3 µM (active).

And the IC50 [15]?
The IC50 was 37.2 µM (active).

With `COc1cccc(-c2nn(-c3ccccc3)cc2/C=C(\C#N)C(=O)NCCCn2ccnc2)c1` as the molecule, how does the IC50 [17] read?
The IC50 was 10.5 µM (active).

What about the IC50 (Prothrombin) of the same molecule?
Its IC50 is 44.4 µM (active).

What about the IC50 (Nonstructural protein 1) of the same molecule?
Its IC50 is 74.2 µM (active).

And the IC50 [12]?
The IC50 was > 100 µM (inactive).

What about the IC50 [13] of the same molecule?
The IC50 was 38.9 µM (active).
